Non-standard residues stand in square brackets, D forms with d. Residues, ends and D or L forms follow the SMILES beside them. Bip = N[C@@H](Cc1ccc(-c2ccccc2)cc1)C(=O)O

A short description of series [1]: HPLC retention time (measure of peptide hydrophobicity). It is filed as physicochemical. Conditions: chromatographic, Waters C8 symmetry hydrophobic column, as described in ref 34; used as indicator of peptide hydrophobicity. The text has this:
In the membrane-bound LL-37 structure determined by 3D NMR spectroscopy, a hydrophobic gap exists (Figure 1A). The location of a hydrophilic S9 on the hydrophobic surface of LL-37 splits the long helix into two hydrophobic domains (gold sticks). The SK-24 peptide we identified here corresponds to the long hydrophobic domain [26]. The amino acid sequence of SK-24, along with LL-37 and its derived antimicrobial peptides, is depicted in Figure 1B. Peptide parameters, including net charge, hydrophobic content, Boman index, GRAVY, hydrophobicity, and hydrophobic moment of each peptide, were calculated using online tools, such as the APD [8] and HeliQuest (Table 1). Except for the shortest RI-10 (net charge +3), LL-37 and its other derived peptides have net charges +5 or +6, above the average net charge (+3.3) of natural antimicrobial peptides registered in the APD [8, 35, 36]. Overall, the hydrophobic percentages (Pho) of these peptides calculated in the APD are proportional to the hydrophobicity and hydrophobic moment calculated by HeliQuest in Table 1. Of note, LL-37 has the highest net charge (+6) and Boman index but the lowest Pho%, GRAVY, and hydrophobic moment.
All peptides were chemically synthesized and purified to >95% (Genemed Synthesis, San Antonio, TX, USA). The quality of each peptide was determined based on mass spectrometry (MS) and high-performance liquid chromatography (HPLC). Peptide stock solutions were freshly made by solubilizing in autoclaved distilled water, and their concentrations were quantitated using UV spectroscopy based on the absorbance difference at 215 and 225 nm as described. Peptide retention time was measured on a Waters C8 symmetry hydrophobic column as described. Other chemicals were purchased from Sigma (St. Louis, MO, USA) unless specified.

Series [2] relates to S. aureus USA300 LAC preformed biofilms. The conditions noted are these: S. aureus USA300 LAC and other clinical strains (USA200, USA400, Mu50); cited from earlier work. How it is done: Here, we compared the antibiofilm activity of SK-24 with that of GF-17, GI-20, and 17BIPHE2 against the 24 h preformed biofilms of S. aureus USA300. […] Only SK-24 a ...
Series [3] has as its system A. baumannii B28-16. Description: Membrane permeabilization (propidium iodide). It is filed as cell-based, Acinetobacter baumannii. The conditions noted are these: peptide 16 µM; propidium iodide fluorescence, 2 h, PBS, 37 °C. On the procedure: Membrane permeabilization was evaluated as described. In brief, bacteria were inoculated and grown overnight. A second inoculation was made and let bacteria grow to the exponential phase. Bacteria were then spun, washed, and resuspended in the same volume of PBS. A series of peptide solutions (10×) was made via two-fold dilution in a 96-well plate (10 µL each). All wells were aliquoted with 2 µL of propidium iodide (20 µM), followed by adding 88 µL of S. aureus USA300 or A. baumannii B28-16 (OD600 ~0.11 in PBS). The plate was incubated at 37 °C with continuous shaking at 100 rpm in a FLUOstar Omega microplate reader (BMG Labtech Inc., Cary, NC, USA). Fluorescence was recorded every 5 min for 2 h with excitation and emission wavelengths of 485 and 620 nm. The data were analyzed by the vendor’s software using averaged values from duplicated experiments.

Turning to `CC(C)C[C@H](NC(=O)[C@H](CC(N)=O)NC(=O)[C@H](CCCNC(=N)N)NC(=O)[C@@H](CC(C)C)NC(=O)[C@H](Cc1ccc(-c2ccccc2)cc1)NC(=O)[C@H](CC(=O)O)NC(=O)[C@H](CCCCN)NC(=O)[C@@H](CC(C)C)NC(=O)[C@H](CCCNC(=N)N)NC(=O)[C@H](CCC(N)=O)NC(=O)[C@@H](NC(=O)[C@@H](CC(C)C)NC(=O)[C@H](CCCNC(=N)N)NC(=O)[C@H](CCCCN)NC(=O)[C@H](Cc1ccc(-c2ccccc2)cc1)NC(=O)CN)C(C)C)C(=O)N[C@H](C(N)=O)C(C)C` [Peptide 17BIPHE2] (H-G[Bip]KR[dL]VQR[dL]KD[Bip][dL]RNLV-NH2; N-terminus assumed), in series [1], the “tHPLC (HPLC retention time)” value came to 10.753 min. For the same compound, the “Disruption of 24 h preformed biofilms (words, found previously)” value in series [2] was “highly effective”. Besides, in series [3], the “Membrane permeation” value was “superior to SK-24”.

Values taken from publication PMC8703873, “Structure and Activity of a Selective Antibiofilm Peptide SK-24 Derived from the NMR Structure of Human Cathelicidin LL-37” (Pharmaceuticals, 2021).
